{"source": "patent US11578084B2", "about": "“Condensed ring compounds having dopamine D3 receptor antagonistic effect” (Shionogi & Co., Ltd., priority 2018, dated 2023)", "key": {"[1]": {"target": "human recombinant dopamine D2 receptor (Homo sapiens (Human), UniProt P14416)", "sequence (P14416 whole entry)": "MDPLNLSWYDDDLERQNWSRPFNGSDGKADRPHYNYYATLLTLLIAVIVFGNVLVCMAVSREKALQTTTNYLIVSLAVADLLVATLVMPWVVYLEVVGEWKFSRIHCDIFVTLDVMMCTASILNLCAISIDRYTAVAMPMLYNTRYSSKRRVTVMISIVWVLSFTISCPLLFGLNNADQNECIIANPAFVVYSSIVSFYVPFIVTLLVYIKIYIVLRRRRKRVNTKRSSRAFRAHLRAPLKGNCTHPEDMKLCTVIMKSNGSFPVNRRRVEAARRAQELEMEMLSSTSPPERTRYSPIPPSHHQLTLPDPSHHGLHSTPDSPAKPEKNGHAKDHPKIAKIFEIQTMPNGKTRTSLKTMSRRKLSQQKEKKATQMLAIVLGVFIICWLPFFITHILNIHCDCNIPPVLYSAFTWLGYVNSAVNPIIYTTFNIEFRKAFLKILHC", "experiment": "Test of binding inhibition for dopamine D2 receptor ([3H]-Methylspiperone SPA)", "settings": "[3H]-Methylspiperone 1.2 nM, Jump-In HEK cell membranes; read-out: hD2_Ki", "method": "(§1) (Experimental Conditions)\nCell membranes: Jump-In HEK cell membranes expressing human recombinant dopamine D2 receptor (2 μg/well)\n(§2) Non-specific ligand: (final concentration) 10 μM Butaclamol [(+)-Butaclamol Hydrochloride, D033, Sigma]\n(§3) SPA beads solution: SPA beads [WGA PVT SPA Scintillation Beads, RPNQ0001 (500 mg), RPNQ0060 (2 g), PerkinElmer] (0.2 mg/well)\n(§4) Incubation time and temperature: 120 min at 25° C.\n(§5) Butaclamol or the compounds of the present invention were weighed and DMSO was added to make a 10 mM solution. This solution was diluted to each concentration.\n(§6) SPA beads were weighed and stirred in water to make a 50 mg/mL solution. Using this solution, a mixture with the cell membranes was prepared.\nJump-In HEK Cell membranes (final reaction amount: 2 μg protein/well), the SPA beads solution (final reaction amount: 0.2 mg/well) and the buffer solution were mixed, and the mixed solution was left still for 1 hour or more at 4° C. Then, 50 μL of the mixture was added to each well of the plate. […] Non-specific binding was calculated based on the radioactivity of [^3H]-Methylspiperone in the presence of 10 μM non-labeled Butaclamol. The total binding was calculated using the radioactivity of [^3H]-Methylspiperone in the absence of the compounds of the present invention (Vehicle). The Ki values were calculated from dose-response curves.\n(§7) Binding activities of the compounds of the present invention were calculated from the following Binding Inhibition Rate (%): Inhibition Rate (%)=[1−(c−a)/(b−a)]×100 • a: Average cpm of non-specific binding • b: Average cpm of total binding • c: Cpm in the presence of each test compound"}, "[2]": {"target": "human recombinant dopamine D3 receptor (Homo sapiens (Human), UniProt P35462)", "sequence (P35462 whole entry)": "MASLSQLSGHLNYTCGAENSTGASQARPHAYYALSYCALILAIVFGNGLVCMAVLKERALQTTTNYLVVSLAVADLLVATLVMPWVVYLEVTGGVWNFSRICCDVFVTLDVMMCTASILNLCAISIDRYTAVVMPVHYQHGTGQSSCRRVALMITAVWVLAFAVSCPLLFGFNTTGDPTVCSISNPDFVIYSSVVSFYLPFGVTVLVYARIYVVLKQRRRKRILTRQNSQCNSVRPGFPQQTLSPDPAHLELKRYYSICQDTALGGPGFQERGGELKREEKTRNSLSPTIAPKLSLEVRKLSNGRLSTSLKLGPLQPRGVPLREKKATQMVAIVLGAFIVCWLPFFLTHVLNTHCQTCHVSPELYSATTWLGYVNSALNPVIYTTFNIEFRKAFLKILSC", "experiment": "Test of binding inhibition for dopamine D3 receptor ([3H]-Methylspiperone SPA)", "settings": "Jump-In HEK cell membranes, 2 nM [3H]-Methylspiperone, 120 min at 25° C.; read-out: hD3_Ki", "method": "as §1\nCell membranes: Jump-In HEK cell membranes expressing human recombinant dopamine D3 receptor (4 μg/well)\nas §2, §3, §4, §5\n[^3H]-Methylspiperone was weighed and the buffer solution was added to make a 6 nM solution.\nas §6\nJump-In HEK Cell membranes (final reaction amount: 4 μg protein/well), the SPA beads solution (final reaction amount: 0.2 mg/well) and the buffer solution were mixed and the mixed solution was left still for 1 hour or more at 4° C. Then, 50 μL of the mixture was added to each well of the plate. In addition, 25 μL of 6 nM [^3H]-Methylspiperone (final concentration: 2 nM) was added to each well. […] Non-specific binding was calculated based on the radioactivity of [^3H]-Methylspiperone in the presence of 10 μM non-labeled Butaclamol. The total binding was calculated using the radioactivity of [H]-Methylspiperone in the absence of the compounds of the present invention (vehicle). The Ki values were calculated from dose-response curves.\nas §7"}}, "data": [{"smiles": "Cn1cc(CC(=O)N[C@H]2CC[C@H](CCN3CCc4ccc(OCC(F)F)nc4CC3)CC2)c(F)n1", "note": "[I′-32]", "values": [{"measurement": "Ki", "setting": "[1]", "value": 1200, "unit": "nM"}, {"measurement": "Ki", "setting": "[2]", "value": 0.16, "unit": "nM"}]}, {"smiles": "Cn1ncc(CC(=O)N[C@H]2CC[C@H](CCN3CCc4ccc(OCC(F)F)nc4CC3)CC2)c1F", "note": "[I′-33]", "values": [{"measurement": "Ki", "setting": "[1]", "value": 1600, "unit": "nM"}, {"measurement": "Ki", "setting": "[2]", "value": 0.85, "unit": "nM"}]}, {"smiles": "Cn1ncc(CC(=O)N[C@H]2CC[C@](F)(CCN3CCc4ccc(OCC(F)F)nc4CC3)CC2)c1F", "note": "[I′-35]", "values": [{"measurement": "Ki", "setting": "[1]", "value": 1800, "unit": "nM"}, {"measurement": "Ki", "setting": "[2]", "value": 0.41, "unit": "nM"}]}, {"smiles": "Cn1ncc(CC(=O)N[C@H]2CC[C@H](CCN3CCc4nc(OCC(F)(F)F)sc4CC3)CC2)n1", "note": "[I′-36]", "values": [{"measurement": "Ki", "setting": "[1]", "value": 740, "unit": "nM"}, {"measurement": "Ki", "setting": "[2]", "value": 0.071, "unit": "nM"}]}, {"smiles": "Cn1ncc(CC(=O)N[C@H]2CC[C@H](CCN3CCc4nc(OCC(F)F)sc4CC3)CC2)n1", "note": "[I′-40]", "values": [{"measurement": "Ki", "setting": "[1]", "value": 1900, "unit": "nM"}, {"measurement": "Ki", "setting": "[2]", "value": 0.19, "unit": "nM"}]}, {"smiles": "Cn1ncc(CC(=O)N[C@H]2CC[C@H](CCN3CCc4ccc(OCC(C)(F)F)nc4CC3)CC2)n1", "note": "[I′-42]", "values": [{"measurement": "Ki", "setting": "[1]", "value": 500, "unit": "nM"}, {"measurement": "Ki", "setting": "[2]", "value": 0.016, "unit": "nM"}]}, {"smiles": "Cn1ncc(CC(=O)N[C@H]2CC[C@](F)(CCN3CCc4ccc(OCC(F)(F)F)nc4CC3)CC2)n1", "note": "[I′-43]", "values": [{"measurement": "Ki", "setting": "[1]", "value": 350, "unit": "nM"}, {"measurement": "Ki", "setting": "[2]", "value": 0.078, "unit": "nM"}]}, {"smiles": "Cn1ncc(CC(=O)N[C@H]2CC[C@H](CCN3CCc4ccc(OCC(F)F)nc4CC3)CC2)n1", "note": "[I′-44]", "values": [{"measurement": "Ki", "setting": "[1]", "value": 2000, "unit": "nM"}, {"measurement": "Ki", "setting": "[2]", "value": 0.11, "unit": "nM"}]}, {"smiles": "Cc1ncc(/C=C/C(=O)N[C@H]2CC[C@H](CCN3CCc4sc(C5CC(F)(F)C5)nc4C3)CC2)cn1", "note": "[I′-45]", "values": [{"measurement": "Ki", "setting": "[1]", "value": 210, "unit": "nM"}, {"measurement": "Ki", "setting": "[2]", "value": 0.11, "unit": "nM"}]}, {"smiles": "Cc1ncc(OCC(=O)N[C@H]2CC[C@](F)(CCN3CCc4ccc(OCC(C)(F)F)nc4CC3)CC2)cn1", "note": "[I′-46]", "values": [{"measurement": "Ki", "setting": "[1]", "value": 260, "unit": "nM"}, {"measurement": "Ki", "setting": "[2]", "value": 0.33, "unit": "nM"}]}, {"smiles": "Cc1ncc(/C=C/C(=O)N[C@H]2CC[C@](F)(CCN3CCc4ccc(OCC(C)(F)F)nc4CC3)CC2)cn1", "note": "[I′-47]", "values": [{"measurement": "Ki", "setting": "[1]", "value": 41, "unit": "nM"}, {"measurement": "Ki", "setting": "[2]", "value": 0.081, "unit": "nM"}]}, {"smiles": "Cc1ncc(/C=C/C(=O)N[C@H]2CC[C@](F)(CCN3CCc4nc(OCC(F)(F)F)sc4CC3)CC2)cn1", "note": "[I′-48]", "values": [{"measurement": "Ki", "setting": "[1]", "value": "> 2200", "unit": "nM"}, {"measurement": "Ki", "setting": "[2]", "value": 0.27, "unit": "nM"}]}, {"smiles": "Cn1c(C(=O)N[C@H]2CC[C@](F)(CCN3CCc4nc(OCC(F)(F)F)sc4CC3)CC2)cccc1=O", "note": "[I′-49]", "values": [{"measurement": "Ki", "setting": "[1]", "value": 290, "unit": "nM"}, {"measurement": "Ki", "setting": "[2]", "value": 0.59, "unit": "nM"}]}, {"smiles": "Cc1nc(CC(=O)N[C@H]2CC[C@](F)(CCN3CCc4nc(OCC(F)(F)F)sc4CC3)CC2)nn1C", "note": "[I′-50]", "values": [{"measurement": "Ki", "setting": "[1]", "value": 1600, "unit": "nM"}, {"measurement": "Ki", "setting": "[2]", "value": 0.23, "unit": "nM"}]}, {"smiles": "Cc1ncc(CC(=O)N[C@H]2CC[C@](F)(CCN3CCc4nc(OCC(F)(F)F)sc4CC3)CC2)cn1", "note": "[I′-51]", "values": [{"measurement": "Ki", "setting": "[1]", "value": 890, "unit": "nM"}, {"measurement": "Ki", "setting": "[2]", "value": 0.48, "unit": "nM"}]}, {"smiles": "Cc1cnc(OCC(=O)N[C@H]2CC[C@](F)(CCN3CCc4nc(OCC(F)(F)F)sc4CC3)CC2)cn1", "note": "[I′-52]", "values": [{"measurement": "Ki", "setting": "[1]", "value": "> 2200", "unit": "nM"}, {"measurement": "Ki", "setting": "[2]", "value": 0.17, "unit": "nM"}]}, {"smiles": "Cc1cnc(OCC(=O)N[C@H]2CC[C@](F)(CCN3CCc4ccc(OCC(F)F)nc4CC3)CC2)cn1", "note": "[I′-53]", "values": [{"measurement": "Ki", "setting": "[1]", "value": "> 2200", "unit": "nM"}, {"measurement": "Ki", "setting": "[2]", "value": 0.32, "unit": "nM"}]}, {"smiles": "Cc1ncc(OCC(=O)N[C@H]2CC[C@H](CCN3CCc4nc(OCC(F)F)sc4CC3)CC2)cn1", "note": "[I′-54]", "values": [{"measurement": "Ki", "setting": "[1]", "value": 1600, "unit": "nM"}, {"measurement": "Ki", "setting": "[2]", "value": 0.32, "unit": "nM"}]}, {"smiles": "Cc1ncc(CC(=O)N[C@H]2CC[C@H](CCN3CCc4nc(OCC(C)(F)F)sc4CC3)CC2)cn1", "note": "[I′-55]", "values": [{"measurement": "Ki", "setting": "[1]", "value": 950, "unit": "nM"}, {"measurement": "Ki", "setting": "[2]", "value": 0.16, "unit": "nM"}]}, {"smiles": "Cc1ncc(CC(=O)N[C@H]2CC[C@H](CCN3CCc4nc(OCC(F)F)sc4CC3)CC2)cn1", "note": "[I′-56]", "values": [{"measurement": "Ki", "setting": "[1]", "value": 1400, "unit": "nM"}, {"measurement": "Ki", "setting": "[2]", "value": 0.3, "unit": "nM"}]}, {"smiles": "Cc1ncc(CC(=O)N[C@H]2CC[C@H](CCN3CCc4cc(F)c(OCC(F)F)nc4CC3)CC2)o1", "note": "[I′-57]", "values": [{"measurement": "Ki", "setting": "[1]", "value": "> 2200", "unit": "nM"}, {"measurement": "Ki", "setting": "[2]", "value": 0.52, "unit": "nM"}]}]}
